In paper PMC8002477, “Bioactive Indole Diketopiperazine Alkaloids from the Marine Endophytic Fungus Aspergillus sp. YJ191021” (Marine Drugs, 2021):
Values after ≈ are worked out from the molar mass of the structure shown. Where two headings read alike, the source gives them in different places.

What was measured:
[1] = system: Vibrio parahaemolyticus; assay: microbe, parasite or virus in culture; type: cell-based; conditions: read-out: MIC, Vp (Vibrio parahaemolyticus)
[2] = system: Xanthomonas oryzae pv. oryzae; assay: microbe, parasite or virus in culture; type: cell-based; conditions: 24 h, read-out: MIC, Xe (Xanthomonas oryzae pv. oryzae)
[3] = system: Xanthomonas oryzae pv. oryzicola; assay: microbe, parasite or virus in culture; type: cell-based; conditions: 24 h, read-out: MIC, Xa (Xanthomonas oryzae pv. oryzicola)
[4] = system: Edwardsiella tarda; assay: microbe, parasite or virus in culture; type: cell-based; conditions: read-out: MIC, Et (Edwardsiella tarda)
[5] = system: Vibrio anguillarum; assay: microbe, parasite or virus in culture; type: cell-based; conditions: read-out: MIC, Va (Vibrio anguillarum)
[6] = system: Aeromonas hydrophilia; assay: microbe, parasite or virus in culture; type: cell-based; conditions: read-out: MIC, Ah (Aeromonas hydrophilia)
[7] = system: Propionibacterium acnes (ATCC6919); assay: Antimicrobial assay against P. acnes (to exclude false anti-inflammatory activity); conditions: Cutibacterium acnes, ATCC6919, read-out: P. acnes MIC
[8] = system: Colletotrichum gloeosporioides; assay: Antimicrobial MIC assay, Colletotrichum gloeosporioides; type: cell-based; conditions: 28 °C, 3-4 days, read-out: MIC, Cg (Colletotrichum gloeosporioides)
[9] = system: Fusarium oxysporum; assay: Antimicrobial MIC assay, Fusarium oxysporum; type: cell-based; conditions: 28 °C, 3-4 days, read-out: MIC, Fo (Fusarium oxysporum)
[10] = system: THP-1 cells; assay: MTT viability of THP-1 cells (safe concentration); conditions: concentration range of THP-1 cells viability over 80%, 36 h
[11] = system: Rhizoctonia solani; assay: Antimicrobial MIC assay, Rhizoctonia solani; type: cell-based; conditions: 28 °C, 3-4 days, read-out: MIC, Rs (Rhizoctonia solani)
[12] = system: THP-1 cells; conditions: human, 36 h

Row | SMILES | MIC [2] [µg/mL] | MIC [3] [µg/mL] | MIC [7] [µM] | MIC [8] [µg/mL] | MIC [9] [µg/mL] | THP-1 Cells SC (safe concentration) [10] [µM] | further results
1 | O=C(N[C@H](CO)[C@H](O)c1ccc([N+](=O)[O-])cc1)C(Cl)Cl [Chloromycetin, reference compound] | 12.5 (≈ 38.7 µM) | 12.5 (≈ 38.7 µM) |  |  |  |  | MIC [1]: 2 µg/mL (≈ 6.19 µM); MIC [4]: 2 µg/mL (≈ 6.19 µM); MIC [5]: 0.5 µg/mL (≈ 1.55 µM); MIC [6]: 2 µg/mL (≈ 6.19 µM)
2 | CC1(C)C=Cc2c(ccc3c2[N+]([O-])=C2C3=CC34NC(=O)C5(CCCN5C3=O)CC4C2(C)C)O1 (stereo not shown) [Compound 1, Asperthrin A] | 50 (≈ 112 µM) | 12.5 (≈ 28.1 µM) | > 5 | > 100 | > 100 | 0 to 5 | MIC [1]: 16 µg/mL (≈ 35.9 µM); MIC [4]: 16 µg/mL (≈ 35.9 µM); MIC [5]: 8 µg/mL (≈ 18 µM); MIC [6]: 32 µg/mL (≈ 71.8 µM)
3 | CC(=O)OC1C23NC(=O)C4(CCCN4C2=O)CC3C(C)(C)C12C(=O)Nc1c2ccc2c1C=CC(C)(C)O2 (stereo not shown) [Compound 5, Asperthrin E] | > 100 | > 100 | > 40 |  |  | 0 to 40 | MIC ([11]; agricultural pathogenic fungus): 25 µg/mL (≈ 49.4 µM); MIC ([8]; agricultural pathogenic fungus): > 100 µg/mL; MIC ([9]; agricultural pathogenic fungus): > 100 µg/mL
4 | CC1(C)C=Cc2c(ccc3c2NC24N5C(=O)C6(O)CCCN6C(=O)C5CC32OC(CO)C4(C)C)O1 (stereo not shown) [Compound 6, Asperthrin F] |  |  | > 50 |  |  | 0 to 50 | 
5 | CC1(C)C=Cc2c(ccc3c2NC(=O)[C@@]32[C@H](O)[C@@]34NC(=O)[C@]5(CCCN5C3=O)C[C@H]4C2(C)C)O1 [Compound 9, sclerotiamide] | > 100 | > 100 | > 50 | > 100 | > 100 | 0 to 50 | MIC [11]: 25 µg/mL (≈ 53.9 µM)
6 | CC1(C)C=Cc2c(ccc3c2N(O)C(=O)C32C(O)C34NC(=O)C5(CCCN5C3=O)CC4C2(C)C)O1 (stereo not shown) [Compound 10, notoamide H] | > 100 | > 100 | > 50 | > 100 | > 100 | 0 to 50 | MIC [11]: 25 µg/mL (≈ 52.1 µM)
7 | CC1(C)C=Cc2c(ccc3c4c([nH]c23)C(C)(C)[C@@H]2C[C@]35CCCN3C(=O)[C@]2(NC5=O)[C@H]4O)O1 [Compound 12, notoamide R] |  |  | > 50 |  |  | 0 to 50 | 
8 | CC(=O)N1CCN(c2ccc(OCC3COC(Cn4ccnc4)(c4ccc(Cl)cc4Cl)O3)cc2)CC1 (stereo not shown) [Ketoconazole, ketoconazole, reference compound] |  |  |  |  |  |  | MIC ([11]; agricultural pathogenic fungus): 0.78 µg/mL (≈ 1.47 µM); MIC ([8]; agricultural pathogenic fungus): 12.5 µg/mL (≈ 23.5 µM); MIC ([9]; agricultural pathogenic fungus): 100 µg/mL (≈ 188 µM)
9 | CC1=C(/C=C/C(C)=C/C=C/C(C)=C/C(=O)O)C(C)(C)CCC1 [Tretinoin, reference compound] |  |  | > 50 |  |  |  | THP-1 Cells SC (safe concentration) [12]: 0 to 50 µM
